Measured values taken from patent US9023845B2, “Compositions and methods for treating lysosomal disorders” (priority 2007, dated 2015).
“Also recorded” adds a separate entry of the source.

How the values were obtained:
Fabry mice [1] = settings: mouse, in vivo
Fabry mice [2] = settings: mouse, in vivo, ip
[3] = tested on: Gaucher and/or Fabry B-cell lines; test: Effect on cultured cell GSLs (TLC, orcinol detection); type: cell-based; settings: 3 days, GSL fractions by TLC/orcinol

CCOC/C=C/c1ccc(-c2nc(-c3ccc(NC(C)C)cc3)c(-c3ccc(NC(C)C)cc3)[nH]2)cc1 [Formula 2]
heart Gb3 staining (VT1) (Fabry mice [1]): effective in reducing heart Gb3 staining
liver Gb3 staining (VT1) (Fabry mice [1]): essentially no residual staining for Gb3 within the liver; also recorded: considerably less than in the control group; also recorded: more effective in reducing liver Gb3 staining as compared to mice treated with cyclosporine; also recorded: essentially removed Gb3 from the liver Kupffer cells
VT1 staining (Fabry mice [2]): decreased VT1 staining
levels of GlcCer and/or LacCer (Fabry mice [2]): increased levels
levels of complex GSLs such as Gb3 (Fabry mice [2]): lower levels
Gb3 levels ([3]; 4 μM): decrease
LacCer and GlcCer levels ([3]; 4 μM): increased
complex GSL levels ([3]; 8 μM): significant reduced
